From patent US7645781B2, “N-aryl-2-oxazolidinone-5-carboxamides and their derivatives” (Pfizer Inc, priority 2002, dated 2010)
Converted amounts (≈) assume the structure as drawn.

Columns and labels:
[1] = test system: Staphylococcus aureus (SAUR 9213); assay: MIC by standard agar dilution method; assay type: cell-based; details: Mueller Hinton agar, incubated overnight at 35° C., read-out: MIC
Procedure, shortened: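 Serial 2-fold compound dilutions in Mueller Hinton agar, spot-inoculated with approximately 10^4 to 10^5 cells from a 1:20-diluted 0.5 McFarland suspension in TSB. Incubated overnight at 35 °C; MIC (μg/ml) is the lowest concentration preventing visible growth.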

MIC [1] | melting point | Structure (SMILES)
4 µg/mL (≈ 10.3 µM) | 243 to 246 °C | CNC(=O)[C@H]1CN(c2cc(F)c(N3CCS(=O)(=O)CC3)c(F)c2)C(=O)O1 [Example 44, (5R)-(−)-N-Methyl-3-[3,5-difluoro-4-(thiomorpholin-4-yl)phenyl]-2-oxo-5-oxazolidinecarboxamide S,S-dioxide]
4 µg/mL (≈ 10.7 µM) | 243 to 245 °C | NC(=O)[C@H]1CN(c2cc(F)c(C3CCS(=O)(=O)CC3)c(F)c2)C(=O)O1 [Example 45, (5R)-3-[3,5-Difluoro-4-(Tetrahydro-2H-thiopyran-4-yl)phenyl]-2-oxo-5-oxazolidinecarboxamide S,S-dioxide]
8 µg/mL (≈ 22.3 µM) | 283 to 285 °C (dec.) | NC(=O)[C@H]1CN(c2cc(F)c([C@H]3CC[S@@+]([O-])CC3)c(F)c2)C(=O)O1 [Example 46, (5R)-(−)-3-[3,5-Difluoro-4-(cis-tetrahydro-1-oxido-2H-thiopyran-4-yl)phenyl]-2-oxo-5-oxazolidinecarboxamide]
8 µg/mL (≈ 27.7 µM) | 228 to 230 °C | C[C@@H]1Cc2cc(N3C[C@H](C(N)=O)OC3=O)ccc2N1C=O [Example 49, (5R)-3-[(2R)-2,3-Dihydro-1-formyl-2-methyl-1H-indol-5-yl]-2-oxo-5-oxazolidinecarboxamide]
2 µg/mL (≈ 6.26 µM) | 198 to 200 °C | C[C@@H]1Cc2cc(N3C[C@H](C(N)=O)OC3=O)ccc2N1C(=O)CO [Example 50, (5R)-3-[(2R)-2,3-Dihydro-1-(hydroxyacetyl)-2-methyl-1H-indol-5-yl]-2-oxo-5-oxazolidinecarboxamide]
2 µg/mL (≈ 6.87 µM) | 304 to 306 °C | CNC(=O)[C@H]1CN(c2ccc3c(c2)oc(=O)n3C)C(=O)O1 [Example 51, (5R)-(−)-N-Methyl-3-(2,3-dihydro-3-methyl-2-oxo-6-benzoxazolyl)-2-oxo-5-oxazolidinecarboxamide]
2 µg/mL (≈ 6.55 µM) | 263 to 265 °C | CCn1c(=O)oc2cc(N3C[C@H](C(=O)NC)OC3=O)ccc21 [Example 52, (5R)-(−)-N-Methyl-3-(2,3-dihydro-3-ethyl-2-oxo-6-benzoxazolyl)-2-oxo-5-oxazolidinecarboxamide]
2 µg/mL (≈ 6.26 µM) | 216 to 218 °C | CNC(=O)[C@H]1CN(c2ccc3c(c2)oc(=O)n3C(C)C)C(=O)O1 [Example 53, (5R)-(−)-N-Methyl-3-(2,3-dihydro-3-isopropyl-2-oxo-6-benzoxazolyl)-2-oxo-5-oxazolidinecarboxamide]
0.5 µg/mL (≈ 1.46 µM) | 257 °C (dec.) | NC(=O)[C@H]1CN(c2ccc(N3Cc4cccnc4C3)c(F)c2)C(=O)O1 [Example 54, (5R)-3-[4-(5,7-Dihydro-6H-pyrrolo[3,4-b]pyridin-6-yl)-3-fluorophenyl]-2-oxo-5-oxazolidinecarboxamide]
1 µg/mL (≈ 2.81 µM) | 275 °C (dec.) | CNC(=O)[C@H]1CN(c2ccc(N3Cc4cccnc4C3)c(F)c2)C(=O)O1 [Example 55, (5R)-N-Methyl-3-[4-(5,7-dihydro-6H-pyrrolo[3,4-b]pyridin-6-yl)-3-fluorophenyl]-2-oxo-5-oxazolidinecarboxamide]
0.5 µg/mL (≈ 1.48 µM) | 249 to 251 °C | NC(=O)[C@H]1CN(c2ccc(C3=NNC(=O)CS3)c(F)c2)C(=O)O1 [Example 64, (5R)-3-[3-Fluoro-4-(5-oxo-5,6-dihydro-4H-[1,3,4]thiadiazin-2-yl)phenyl]-2-oxo-5-oxazolidinecarboxamide]
1 µg/mL (≈ 3.25 µM) | 260 to 262 °C | CN1C(=O)CCc2cc(N3C[C@H](C(N)=O)OC3=O)cc(F)c21 [Example 82, (5R)-3-(8-Fluoro-1-methyl-2-oxo-1,2,3,4-tetrahydroquinolin-6-yl)-2-oxo-5-oxazolidinecarboxamide]
2 µg/mL (≈ 6.22 µM) | 264 to 265 °C | CNC(=O)[C@H]1CN(c2cc(F)c3c(c2)CCC(=O)N3C)C(=O)O1 [Example 83, (5R)-N-Methyl-3-(8-fluoro-1-methyl-2-oxo-1,2,3,4-tetrahydroquinolin-6-yl)-2-oxo-5-oxazolidinecarboxamide]
